One test concerns Neurospora crassa. The test can be described thus: Antifungal activity against Neurospora crassa 74-OR23-1A after 12 hrs. The class given is functional.
A further test has as its system MOLT-4. The test can be described thus: Cytotoxicity against human MOLT4 cells at […]. The class given is functional.

Converted amounts (≈) assume the structure as drawn. The source made the active and inactive calls.

The compound `CC(O)C(O)/C=C/C=C/C(=O)O[C@@H]1C=C2COC(=O)[C@]2(O)[C@@]2(C)CCCC(C)(C)[C@H]12` (stereo not given in full) came in with an MIC with Neurospora crassa of 162 µM (≈ 68.1 µg/mL).

As to `CC1(C)OC(=O)C=C[C@]2(C)[C@@H]3C[C@@]4(C)C(=O)[C@@]5(C)C[C@@H]6C(=O)OC[C@@]64O[C@@]3(CC[C@@H]12)C5` [INSUETOLIDE A], 140 µM (≈ 60 µg/mL) was the least that counted as inhibitory with Neurospora crassa (MIC). Further, in the test with MOLT-4, the inhibition entry was “inactive”.

Compound `CC1(C)CCC[C@@]2(C)[C@H]1[C@H](O)C=C1COC(=O)[C@@]12O` [STROBILACTONE A] yielded an MIC against Neurospora crassa of 242 µM (≈ 64.5 µg/mL). In addition, the inhibition entry in the test with MOLT-4 is “inactive”.

For orientation: MIC means the smallest concentration in the dilution series that meets the test's criterion for growth inhibition.
